Laboratory results: paper PMC4024065, “Optimization of an Imidazopyridazine Series of Inhibitors of Plasmodium falciparum Calcium-Dependent Protein Kinase 1 (PfCDPK1)” (Journal of Medicinal Chemistry, 2014)
Where two headings read alike, the source gives them in different places.

Experiments:
[1] = Figure 1 summary data; cited from earlier work
[2] = Figure 1 summary data; cited from earlier work; remark: listed apart in the source
Pharmacokinetics in rats = assay type: in vivo; settings: rat, hydrochloride salt

Structure (SMILES) | MLM % rem at 30 min [1] [%] | HLM % rem at 40 min [2] [%] | Vd (Pharmacokinetics in rats; in vivo, iv 4.5 mg/kg) [L/kg] | half-life (Pharmacokinetics in rats; in vivo, iv 4.5 mg/kg, read-out: iv t1/2 (converted)) [h] | clearance (Pharmacokinetics in rats; plasma, iv 4.5 mg/kg, read-out: plasma Cl) [mL/min/kg] | oral BA (Pharmacokinetics in rats; po 21 mg/kg, iv […]) [%] | clearance (Pharmacokinetics in rats; whole blood, iv 4.5 mg/kg, read-out: blood Cl) [mL/min/kg]
CC(C)CCNc1ccc(-c2cnc3ccc(NC4CCN(C)CC4)nn23)cn1 [Compound 1] | 63 | 85 | – | – | – | – | –
CN1CCC(Nc2ccc3ncc(-c4ccc(Nc5ncccc5F)cc4)n3n2)CC1 [Compound 35, 3-{4-[(3-Fluoropyridin-2-yl)amino]phenyl}-N-(1-methylpiperidin-4-yl)imidazo[1,2-b]pyridazin-6-amine] | – | – | 8 | 4 | 28 | 70 | 14
